Source: patent US3954778A, “Aminoacetyl derivatives of 2,3-diphenyl cyclopropyl amine” (priority 1970, dated 1976)
Counter-ions that a name gives are not always drawn. Like-named read-outs stand apart in the source and are kept apart here.

Experiments:
male albine Swiss mice [1] = assay: Electroshock (M.E.S.); type: in vivo; details: for ED50: Mus musculus
Protocol: (§1) Materials and methods. The animals used to perform the pharmacological tests with the compounds of the invention have been, unless the contrary is explicitly indicated, male albine Swiss mice weighing 19-23 g; each animal has been used only once.
(§2) The compounds have been administered as hydrochlorides, under skin (0.1 ml/10 g) 30 minutes ante; for determining the LD50, the compounds have been administered by intraperitoneal route and were considered deaths occured in the 72 hours following the treatment.
(§3) As reference compounds there was used: ethosuximide injected under skin 30 minutes ante (before); Phenurone per os 60 minutes ante; phenobarbital sodium salt under skin 30 minutes ante, trimethadione under skin 30 minutes ante; primidone per os 6 hours ante and Mephenesin under skin 30 minutes ante.
Electroshock (M.E.S.) -- The method adopted in making the electroshock is Cashin C.
(§4) The so-obtained data have been elaborated by calculating the ED50 and the LD50 according to Lichtfield-Wilcoxon's method (J. Pharmacol. 1949, 96, 99).

male albine Swiss mice [2] = assay: Shock by cardiazol (M.M.S.); type: in vivo; details: for ED50: Mus musculus
Protocol: as §1, §2, §3
Under such conditions the results obtained with the reference compounds are in good agreement with those reported in the art for the same compounds (E. A. Swinyard, W. C. Brown, L. S. Goodman --J. Pharmacol., 1952, 106, 3 19). Shock by cardiazol (M.M.S.) -- 38 mg/kg of cardiazol, in the form of a 0.38% aqueous solution, is quickly injected in the dorsal vein of the mouse's tail (L. S. Goodman, M. Singh Grewal, W. C. Brown, E. A. Swinyard -- J. Pharmacol. 1953, 108, 168). The animals are considered as protected when the extensor phase of the hind paws is eliminated during the tonic crisis.
as §4

rat = assay: Inhibition of calcium chloride induced cardiac arrhythmias in rats; type: in vivo; details: for minimal effective dose: read-out: active dose (complete inhibition of cardiac arrhythmias)
Protocol: The new compounds of the invention are deprived of MAO-inhibiting activity in live rats, both on the mithocondres of hepatic tissue and on the mithocondres of homogenatous of cerebral tissue, even if administered in doses of 100-200 mg/kg per os. […] In particular the activity in cardiac arrhythmias of N-pyrrolidinoacetyl-2,3-cis, trans-diphenylcyclopropylamine has been studied by experimentally inducing arrhythmias in rats by means of calcium chloride, and in dogs by means of adrenaline.
The experiments in rats have been performed as follows:
There was determined the inhibiting effect of N-pyrrolidine acetyl-2,3-cis,trans-diphenylcyclopropylamine hydrochloride on the cardiac arrhythmias arising within the 5 minutes following the calcium chloride administration in comparison with quinidine, procaine and propranolol.

dog = assay: Protection from adrenaline induced cardiac arrhythmias in dogs; type: in vivo; details: 1 mg/kg intravenous
Protocol: The new compounds of the invention are deprived of MAO-inhibiting activity in live rats, both on the mithocondres of hepatic tissue and on the mithocondres of homogenatous of cerebral tissue, even if administered in doses of 100-200 mg/kg per os. As found also with other anticonvulsive drugs, the new compounds of the present invention are endowed with a good antiarrhythmic activity. In particular the activity in cardiac arrhythmias of N-pyrrolidinoacetyl-2,3-cis, trans-diphenylcyclopropylamine has been studied by experimentally inducing arrhythmias in rats by means of calcium chloride, and in dogs by means of adrenaline.
The experiments with dogs have been performed as follows:
The dog has been anesthetized with chloralose and then administered by intravenous injection with 30 γ/kg of adrenaline. The results were evaluated according to Somani and Lum B. K. B. (J. Pharmacol. Expt. Therap. 1965, 147, 194-202).

Acute toxicity LD50 = details: mouse, in vivo, ip
Protocol: as §1, §2, §4

[3] = sc, 0.5 h, new compounds (Table 2), as hydrochlorides, under skin 30 minutes ante, read-out: ED50 M.E.S.
[4] = sc, 0.5 h, new compounds (Table 2), as hydrochlorides, under skin 30 minutes ante, cardiazol 38 mg/kg i.v., read-out: ED50 M.M.S.
[5] = sc, 0.5 h, reference compounds (Table 1), under skin 30 minutes ante, cardiazol 38 mg/kg i.v., read-out: M.M.S. ED50
[6] = sc, 0.5 h, read-out: M.M.S. ED50

## 1.1-dimethyl-3-phenyl-urea [Phenurone, reference compound]
Male albine Swiss mice [1]; Phenurone (Table 1), per os 60 minutes ante
  M.E.S. ED50: 115 mg/kg
Male albine Swiss mice [2]; Phenurone (Table 1), per os 60 minutes ante, cardiazol 38 mg/kg i.v.
  M.M.S. ED50: 50 mg/kg

## CC(C)N(CC(=O)NC1[C@H](c2ccccc2)[C@H]1c1ccccc1)C(C)C (relative stereo) [N-diisopropylaminoacetyl-2,3-cis,trans-diphenylcyclopropylamine]
Male albine Swiss mice [1]; [3]
  ED50: 135 mg/kg
Male albine Swiss mice [2]; [4]
  ED50: 87 mg/kg

## O=C(CN1CCCC1)NC1[C@H](c2ccccc2)[C@H]1c1ccccc1 (relative stereo) [N-pyrrolidinoacetyl-2,3-cis,trans-diphenylcyclopropylamine hydrochloride]
rat; calcium chloride 80 mg/kg i.v., anesthetized rat, drug 90 seconds before calcium chloride
  minimal effective dose: 2 mg/kg
rat; rat, calcium chloride arrhythmia, dose 2 mg/kg
  duration of activity: about 20 minutes
dog; 2 minutes ante adrenaline (30 γ/kg i.v.)
  protection from adrenaline arrhythmia: completely protected
dog; adrenaline arrhythmia
  duration of effect: 60 min

## O=C(CN1CCCCC1)NC1[C@H](c2ccccc2)[C@H]1c1ccccc1 (relative stereo) [cis-trans, N-piperidinoacetyl-2,3-cis,trans-diphenylcyclopropylamine hydrochloride]
Male albine Swiss mice [1]; [3]
  ED50: 14.5 mg/kg
Male albine Swiss mice [2]; [4]
  ED50: 6 mg/kg
Acute toxicity LD50
  LD50 at 72 h: 88 mg/kg

## O=C(CN1CCCC1)NC1[C@H](c2ccccc2)[C@H]1c1ccccc1 (relative stereo) [cis-trans, N-pyrrolidinoacetyl-2,3-cis,trans-diphenylcyclopropylamine]
Male albine Swiss mice [1]; [3]
  ED50: 9 mg/kg
Male albine Swiss mice [2]; [4]
  ED50: 5.6 mg/kg
Acute toxicity LD50
  LD50 at 72 h: 67.5 mg/kg

## CCN(CC)CC(=O)NC1[C@H](c2ccccc2)[C@H]1c1ccccc1 (relative stereo) [cis-trans, R1 = C2 H5, R2 = C2 H5, N-dietylaminoacetyl-2,3-cis-trans-diphenylcyclopropylamine]
Male albine Swiss mice [1]; [3]
  ED50: 14.2 mg/kg
Male albine Swiss mice [2]; [4]
  ED50: 12.5 mg/kg
Acute toxicity LD50
  LD50 at 72 h: 92.5 mg/kg

## CN(C)CC(=O)NC1[C@H](c2ccccc2)[C@H]1c1ccccc1 (relative stereo) [cis-trans, R1 = CH3, R2 = CH3, N-dimethylaminoacetyl-2,3-cis,trans-diphenylcyclopropylamine]
Male albine Swiss mice [1]; [3]
  ED50: 16.5 mg/kg
Male albine Swiss mice [2]; [4]
  ED50: 16 mg/kg

## CCNCC(=O)NC1[C@H](c2ccccc2)[C@H]1c1ccccc1 (relative stereo) [cis-trans, R1 = H, R2 = C2 H5, N-ethylaminoacetyl-2,3-cis,trans-diphenylcyclopropylamine hydrochloride]
Male albine Swiss mice [1]; [3]
  ED50: 16.5 mg/kg
Male albine Swiss mice [2]; [4]
  ED50: 13 mg/kg
Acute toxicity LD50
  LD50 at 72 h: 85 mg/kg

## CNCC(=O)NC1[C@H](c2ccccc2)[C@H]1c1ccccc1 (relative stereo) [cis-trans, R1 = H, R2 = CH3, N-methylaminoacetyl-2,3-cis,trans-diphenyl-cylcopropylamine hydrochloride]
Male albine Swiss mice [1]; [3]
  ED50: 25.5 mg/kg
Male albine Swiss mice [2]; [4]
  ED50: 30 mg/kg
Acute toxicity LD50
  LD50 at 72 h: 112 mg/kg

## CCCN(CCC)CC(=O)NC1[C@H](c2ccccc2)[C@H]1c1ccccc1 (relative stereo) [cis-trans, R1 = n-C3 H7, R2 = n-C3 H7, di-n-propylaminoacetyl-2,3-cis, trans-diphenylcyclopropylamine hydrochloride]
Male albine Swiss mice [1]; [3]
  ED50: > 100 mg/kg
Male albine Swiss mice [2]; [4]
  ED50: 175 mg/kg

## CCCCN(CCCC)CC(=O)NC1[C@H](c2ccccc2)[C@H]1c1ccccc1 (relative stereo) [cis-trans, R1 = n-C4 H9, R2 = n-C4 H9, N-di-n-butylaminoacetyl-2,3-cis,trans-diphenylcyclopropylamine]
Male albine Swiss mice [1]; [3]
  ED50: > 250 mg/kg
Male albine Swiss mice [2]; [4]
  ED50: > 250 mg/kg

## CCC1(C)CC(=O)NC1=O (stereo not drawn) [Ethosuximide, reference compound]
Male albine Swiss mice [2]; [5]
  ED50: 50 mg/kg

## Cc1ccccc1OCC(O)CO (stereo not drawn) [Mephenesin, reference compound]
Male albine Swiss mice [2]; [5]
  ED50: 180 mg/kg

## O=C1NC(=O)C(c2ccccc2)(c2ccccc2)N1 [Phenitoine Sodium salt, reference compound]
Male albine Swiss mice [1]; Phenitoine sodium salt (Table 1), route and time not stated, read-out: M.E.S. ED50
  ED50: 15 mg/kg
Male albine Swiss mice [2]; iv, Phenitoine sodium salt (Table 1), route and time not stated, cardiazol 38 mg/kg i.v., read-out: M.M.S. ED50
  ED50: 7.1 mg/kg

## CCC1(c2ccccc2)C(=O)NC(=O)NC1=O [Phenobarbital sodium salt, reference compound]
Male albine Swiss mice [1]; sc, 0.5 h, read-out: M.E.S. ED50
  ED50: 35 mg/kg
Male albine Swiss mice [2]; [6]
  ED50: 4.5 mg/kg

## CCC1(c2ccccc2)C(=O)NCNC1=O [Primidone, reference compound]
Male albine Swiss mice [2]; po, Primidone (Table 1), per os 6 hours ante, cardiazol 38 mg/kg i.v., read-out: M.M.S. ED50
  ED50: 5.2 mg/kg

## CN1C(=O)OC(C)(C)C1=O [Trimethadione, reference compound]
Male albine Swiss mice [2]; [6]
  ED50: 175 mg/kg

## CCN(CC)CCOC(=O)c1ccc(N)cc1 [procaine]
rat; Rattus norvegicus
  minimal effective dose: 5 mg/kg

## CC(C)NCC(O)COc1cccc2ccccc12 (stereo not drawn) [propranolol]
rat; Rattus norvegicus
  minimal effective dose: 1 mg/kg

## C=C[C@H]1C[N@@]2CC[C@H]1C[C@@H]2[C@@H](O)c1ccnc2ccc(OC)cc12 [quinidine]
rat; Rattus norvegicus
  minimal effective dose: 2.5 mg/kg

## O=C(CN1CCCC1)N[C@@H]1[C@@H](c2ccccc2)[C@H]1c1ccccc1 [trans-trans, N-pyrrolidinoacetyl-2,3-trans,trans-diphenylcyclopropylamine hydrochloride]
Male albine Swiss mice [1]; [3]
  ED50: 87 mg/kg
Acute toxicity LD50
  LD50 at 72 h: 266 mg/kg
